This is an account of results in patent US20190218226A1, “PRODRUGS OF ANTICANCER AGENTS INDOTECAN AND INDIMITECAN” (Purdue Research Foundation, priority 2016, published 2019).

The test system of one data set is DU-145. Kind of data set: NCI60 antiproliferative screen, prostate DU-145. Conditions: DU-145, 48 h, sulforhodamine B; read-out: Cytotoxicity (GI50) prostate DU-145. It is filed as cell-based, human. The essentials: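 SRB read-out after 48 h exposure; five concentrations, 0.01–100 μM in tenfold steps. Percent growth vs control plotted against log10 conc; GI50 by interpolation across 50% growth.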

Data set [1] in a line: Stability of compound 17 in cell culture medium. It counts as physicochemical. Conditions: 10 μM, cell-free RPMI 1640 medium, 37° C., after 99 hours. As for the experimental part: In order to investigate the possibility that hydrolysis of the prodrugs takes place extracellularly rather than intracellularly, compound 17 was added to cell-free cell culture medium and the mixture was incubated at 37° C. Relatively slow conversion to the parent phenol 9 was observed, with 22% conversion after 99 hours.
Stability of Compound 17 in Cell Culture Medium.
RPMI 1640 medium was purchased from Sigma-Aldrich (St. Louis, Mo.). Compound 17 (10 μM) was incubated at 37° C. with RPMI 1640 medium. After 99 h, an aliquot was taken from the incubation mixture and filtered prior to analysis using LC-MS (Waters, Germany). The flow rate was 0.75 mL/min and the eluent was recorded with a DAD at 280 nm.

Each structure is given as a SMILES string.

For the compound `COC(=O)CCC(=O)Oc1cc2c(=O)n(CCCN3CCOCC3)c3c(c2cc1OC)C(=O)c1cc2c(cc1-3)OCO2` [Compound 17, 2-Methoxy-6-(3-morpholinopropyl)-5,12-dioxo-6,12-dihydro-5H-[1,3]dioxolo[4′,5′:5,6]indeno[1,2-c]isoquinolin-3-yl Methyl Succinate], the concentration for 50% growth inhibition (GI50) (commonly the concentration that inhibits growth by half) in the data set on DU-145 turned out to be 0.014 µM. Besides, in data set [1], the “conversion to the parent phenol 9” value is 22%.
